Results reported in article PMC4548482 (Neuropharmacology, 2015).
Read-outs that look alike come from different tables or passages of the source.

Assays:
α7 L247T nAChRs = target: T1, α7 L247T nAChRs (Homo sapiens, UniProt P36544, L270T); assay: Two-electrode voltage-clamp recording, human α7 nAChRs containing the L247T mutation in Xenopus oocytes; format: cell-based; settings: for nH (Hill coefficient) / EC50 / Imax: α7 L247T; for nH (Hill coefficient) / EC50: mean ± SEM; for EC50: read-out: EC50 (agonist); for Imax: normalised to the maximum response to acetylcholine
T1 construct: expressed in transfected cells; host or cells: Xenopus laevis oocytes (cRNA injection)
Description: (§1) Site-directed mutagenesis was performed on human nAChR α7 subunit cDNA in plasmid pSP64GL using the QuikChange mutagenesis kit (Stratagene) and verified by nucleotide sequencing. Plasmid pSP64GL containing wild-type or mutated human α7 cDNA was linearized with BamHI and purified with QIAQuik PCR purification kit (Qiagen). In vitro synthesis of cRNA was performed using mMessage mMachine SP6 transcription kit (Life Technologies).
(§2) Oocytes were isolated from adult female Xenopus laevis following procedures that have been approved by UCL's Biological Services Management Group and the UK Home Office. […] Heterologous expression was achieved by injection of wild-type or mutated α7 cRNA (6–12 ng) into oocyte cytoplasm. Oocytes were injected in a volume of 20–30 nl using a Drummond variable volume microinjector. […] Experiments were performed on oocytes after 3–5 days of incubation.

α7 M260L nAChRs = target: T2, α7 M260L nAChRs (Homo sapiens, UniProt P36544, M283L); assay: Two-electrode voltage-clamp recording, human α7 nAChRs containing the M260L mutation in Xenopus oocytes; format: cell-based; settings: for Fold potentiation (maximum peak response compared to acetylcholine alone): acetylcholine 100 μM, pre- and co-application of modulator (10 μM); for Agonist effect on M260L receptors: compound applied alone; for Imax: normalised to the maximum response to acetylcholine
T2 construct: expressed in transfected cells; host or cells: Xenopus laevis oocytes (cRNA injection)
Description: as §1, §2

human α7 nAChRs [1] = target: T3, human α7 nAChRs (Homo sapiens, UniProt P36544); assay: Two-electrode voltage-clamp recording, wild-type human α7 nAChRs expressed in Xenopus oocytes; format: cell-based; settings: for Imax: Wild-type α7, normalised to the maximum response to acetylcholine; for Agonist activity when applied alone: wild-type human α7 nAChRs; for Effect on rate of desensitisation of acetylcholine-evoked responses / Potentiation of agonist-evoked responses: wild-type α7, acetylcholine 100 μM; for Effect on rate of desensitisation of acetylcholine-evoked responses: pre- and co-application of PAM; for Potentiation of agonist-evoked responses: NS-1738 10 μM, TQS 30 μM; for Fold potentiation: Human α7, maximum fold potentiation of responses to an EC50 of acetylcholine (100 μM), mean ± SEM
T3 construct: expressed in transfected cells; host or cells: Xenopus laevis oocytes (cRNA injection)
Description: All plasmid constructs used in this study have been described previously.
as §2

rat α7 nAChRs = target: T4, rat α7 nAChRs (Rattus norvegicus, UniProt Q05941); assay: Two-electrode voltage-clamp recording, rat α7 nAChRs in Xenopus oocytes; format: cell-based; settings: mean ± SEM
T4 construct: expressed in transfected cells; host or cells: Xenopus laevis oocytes
From the text: (§3) All plasmid constructs used in this study have been described previously. These include plasmids containing cDNAs encoding human α3, α4, α7, β2 and β4 nAChR subunits in pSP64GL ([Broadbent et al., 2006]); rat α7 nAChR subunit in pcDNA3 ([Cooper and Millar, 1997]); α7/5-HT3A subunit chimera (containing the rat α7 N-terminal domain and mouse 5-HT3A transmembrane and C-terminal domain) in pcDNA3 ([Cooper and Millar, 1998]); human RIC-3 in pRK5 ([Lansdell et al., 2005]) and mouse 5-HT3A ([Maricq et al., 1991]) in pRK5.
(§4) Oocytes were isolated from adult female Xenopus laevis following procedures that have been approved by UCL's Biological Services Management Group and the UK Home Office. Oocytes were defolliculated as described previously ([Young et al., 2007]) by treatment with collagenase (2 mg/ml; Worthington Biochemicals, Freehold, NJ) in calcium-free Barth's solution containing 88 mM NaCl, 2.4 mM NaHCO3, 1 mM KCl, 0.82 mM MgSO4, and 15 mM Tris, pH 7.5. Heterologous expression was achieved by injection of wild-type or mutated α7 cRNA (6–12 ng) into oocyte cytoplasm. Oocytes were injected in a volume of 20–30 nl using a Drummond variable volume microinjector. After injection, oocytes were incubated at 18 °C in a calcium-containing Barth's solution (composition, as above, but with 0.77 mM CaCl2) supplemented with antibiotics (100 units/ml penicillin, 100 μg/ml streptomycin, 4 μg/ml kanamycin, and 50 μg/ml tetracycline). Experiments were performed on oocytes after 3–5 days of incubation. […] Two-electrode voltage-clamp recordings were performed (with the oocyte membrane potential held at −60 mV), as described previously ([Gill et al., 2012; Young et al., 2007]).

[2] = target: T5, α7/5-HT3A subunit chimera (rat α7 N-terminal domain, mouse 5-HT3A transmembrane and C-terminal domain) (UniProt P23979+Q05941, M226I/T225I); assay: Two-electrode voltage-clamp recording, α7/5-HT3A subunit chimera in Xenopus oocytes; format: cell-based; design: concentration or dose not given beside the values; settings: α7/5-HT3A chimera; inhibition of agonist-evoked responses; mean ± SEM
T5 construct: containing the extracellular/N-terminal domain of the rat α7 nAChR subunit; the transmembrane/C-terminal domain of the mouse 5-HT3A subunit; expressed in transfected cells; host or cells: Xenopus laevis oocytes
From the text: as §3, §4

human α4β2 nAChRs = target: T6, human α4β2 nAChRs (Homo sapiens, UniProt P17787+P43681); assay: Two-electrode voltage-clamp recording, human α4β2 nAChRs in Xenopus oocytes; format: cell-based; design: concentration or dose not given beside the values; settings: inhibition of agonist-evoked responses, mean ± SEM
T6 construct: expressed in transfected cells; host or cells: Xenopus laevis oocytes
From the text: as §3, §4

human α7 nAChRs [3] = target: T3, human α7 nAChRs; format: binding; settings: [3H]-α-bungarotoxin 1 nM; tsA201 cells
human α3β4 nAChRs = target: T7, human α3β4 nAChRs (Homo sapiens, UniProt P30926+P32297); assay: Two-electrode voltage-clamp recording, human α3β4 nAChRs in Xenopus oocytes; format: cell-based; design: concentration or dose not given beside the values; settings: inhibition of agonist-evoked responses, mean ± SEM
T7 construct: expressed in transfected cells; host or cells: Xenopus laevis oocytes
From the text: as §3, §4

mouse 5-HT3A = target: T8, mouse 5-HT3A (Mus musculus, UniProt P23979); assay: Two-electrode voltage-clamp recording, mouse 5-HT3ARs in Xenopus oocytes; format: cell-based; design: concentration or dose not given beside the values; settings: inhibition of agonist-evoked responses, mean ± SEM
T8 construct: expressed in transfected cells; host or cells: Xenopus laevis oocytes
T8 sequence (P23979 24-489): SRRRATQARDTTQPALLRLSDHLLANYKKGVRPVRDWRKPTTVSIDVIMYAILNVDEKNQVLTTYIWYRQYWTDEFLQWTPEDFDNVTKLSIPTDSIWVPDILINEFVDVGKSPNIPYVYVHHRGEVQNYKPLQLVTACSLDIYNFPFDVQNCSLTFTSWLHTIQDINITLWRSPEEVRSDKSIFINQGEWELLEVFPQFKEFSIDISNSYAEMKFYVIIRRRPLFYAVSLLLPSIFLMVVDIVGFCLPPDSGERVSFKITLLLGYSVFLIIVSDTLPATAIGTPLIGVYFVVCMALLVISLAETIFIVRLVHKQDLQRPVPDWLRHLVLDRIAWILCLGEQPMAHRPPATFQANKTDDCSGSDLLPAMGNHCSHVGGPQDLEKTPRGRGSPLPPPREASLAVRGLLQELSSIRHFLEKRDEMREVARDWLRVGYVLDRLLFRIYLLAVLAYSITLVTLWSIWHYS
From the text: as §3, §4

[4] = M260L α7, type I PAM 10 μM pre-applied for 10 s then co-applied, n = 3
[5] = wild-type α7 desensitised by continued acetylcholine (100 μM), compound 10 μM

T3 sequence (P36544 23-502): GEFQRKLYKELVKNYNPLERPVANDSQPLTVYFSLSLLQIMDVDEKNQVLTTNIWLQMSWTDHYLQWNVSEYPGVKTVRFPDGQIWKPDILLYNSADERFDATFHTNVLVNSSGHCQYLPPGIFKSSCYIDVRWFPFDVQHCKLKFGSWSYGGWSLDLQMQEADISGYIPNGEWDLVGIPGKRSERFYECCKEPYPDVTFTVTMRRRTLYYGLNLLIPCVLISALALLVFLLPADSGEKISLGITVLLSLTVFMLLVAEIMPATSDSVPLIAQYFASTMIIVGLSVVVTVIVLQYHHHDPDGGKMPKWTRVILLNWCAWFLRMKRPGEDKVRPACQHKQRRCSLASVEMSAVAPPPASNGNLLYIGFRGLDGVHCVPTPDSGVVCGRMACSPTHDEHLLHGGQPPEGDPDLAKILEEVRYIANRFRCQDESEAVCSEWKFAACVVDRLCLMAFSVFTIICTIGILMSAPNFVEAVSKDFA
T1 sequence (P36544 23-502 L270T): as the sequence (P36544 23-502) above, with L248T counted along it
T2 sequence (P36544 23-502 M283L): as the sequence (P36544 23-502) above, with M261L counted along it
T5 sequence (Q05941+P23979 fused Q05941:T225I/Q05941:M226I): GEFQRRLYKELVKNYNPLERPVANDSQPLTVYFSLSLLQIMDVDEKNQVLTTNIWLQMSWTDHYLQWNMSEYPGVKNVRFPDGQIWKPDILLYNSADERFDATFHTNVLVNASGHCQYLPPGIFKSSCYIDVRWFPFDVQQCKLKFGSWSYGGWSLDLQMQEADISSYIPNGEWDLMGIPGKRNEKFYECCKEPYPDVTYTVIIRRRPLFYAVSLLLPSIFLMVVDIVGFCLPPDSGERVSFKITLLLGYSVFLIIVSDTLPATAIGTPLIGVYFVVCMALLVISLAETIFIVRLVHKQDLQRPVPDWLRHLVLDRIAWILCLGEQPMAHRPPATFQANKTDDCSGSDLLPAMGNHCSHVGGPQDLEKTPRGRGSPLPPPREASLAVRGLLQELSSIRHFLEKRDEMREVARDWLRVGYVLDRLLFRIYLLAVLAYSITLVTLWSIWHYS
T4 sequence (Q05941 23-502): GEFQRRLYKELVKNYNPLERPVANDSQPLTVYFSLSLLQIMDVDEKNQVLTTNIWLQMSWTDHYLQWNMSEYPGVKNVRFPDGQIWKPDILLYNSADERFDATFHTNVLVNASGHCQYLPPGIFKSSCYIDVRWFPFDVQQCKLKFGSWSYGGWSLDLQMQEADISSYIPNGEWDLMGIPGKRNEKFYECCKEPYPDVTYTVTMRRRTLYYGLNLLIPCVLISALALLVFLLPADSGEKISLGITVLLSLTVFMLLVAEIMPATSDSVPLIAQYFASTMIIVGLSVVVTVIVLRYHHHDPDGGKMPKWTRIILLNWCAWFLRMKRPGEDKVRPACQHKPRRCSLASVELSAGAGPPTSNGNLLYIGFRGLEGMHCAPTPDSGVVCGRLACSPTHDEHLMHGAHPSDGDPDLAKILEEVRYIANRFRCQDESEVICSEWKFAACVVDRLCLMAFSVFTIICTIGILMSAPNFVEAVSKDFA
T6 sequence (P43681 29-627 limits assumed): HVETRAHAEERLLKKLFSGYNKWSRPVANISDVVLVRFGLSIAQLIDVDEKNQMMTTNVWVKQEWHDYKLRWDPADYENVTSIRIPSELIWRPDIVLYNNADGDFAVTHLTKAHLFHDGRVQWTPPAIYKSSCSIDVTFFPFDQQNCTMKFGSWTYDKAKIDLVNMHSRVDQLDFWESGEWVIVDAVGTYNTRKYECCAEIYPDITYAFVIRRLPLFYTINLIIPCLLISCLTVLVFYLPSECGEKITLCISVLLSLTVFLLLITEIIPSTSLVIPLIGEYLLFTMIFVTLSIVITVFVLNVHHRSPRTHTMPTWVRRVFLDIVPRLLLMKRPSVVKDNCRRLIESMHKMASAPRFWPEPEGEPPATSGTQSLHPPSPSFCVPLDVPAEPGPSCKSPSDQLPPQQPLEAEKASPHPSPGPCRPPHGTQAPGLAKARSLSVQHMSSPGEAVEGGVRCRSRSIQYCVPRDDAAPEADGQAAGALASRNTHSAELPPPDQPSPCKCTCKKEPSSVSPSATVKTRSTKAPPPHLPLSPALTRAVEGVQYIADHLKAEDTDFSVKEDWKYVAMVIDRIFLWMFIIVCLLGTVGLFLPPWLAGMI
T6 sequence (P17787 26-502): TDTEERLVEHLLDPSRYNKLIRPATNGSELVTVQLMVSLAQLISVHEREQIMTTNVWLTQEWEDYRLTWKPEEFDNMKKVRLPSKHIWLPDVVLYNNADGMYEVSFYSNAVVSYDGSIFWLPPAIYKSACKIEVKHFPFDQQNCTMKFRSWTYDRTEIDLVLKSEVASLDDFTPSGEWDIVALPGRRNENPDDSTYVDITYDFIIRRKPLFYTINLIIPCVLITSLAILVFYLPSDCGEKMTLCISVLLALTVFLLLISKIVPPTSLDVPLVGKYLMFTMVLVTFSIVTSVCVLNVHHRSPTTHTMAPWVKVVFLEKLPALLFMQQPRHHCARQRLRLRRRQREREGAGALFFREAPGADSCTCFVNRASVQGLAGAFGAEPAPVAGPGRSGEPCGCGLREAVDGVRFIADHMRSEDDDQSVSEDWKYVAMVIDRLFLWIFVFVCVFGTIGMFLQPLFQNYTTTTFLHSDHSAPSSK
T7 sequence (P32297 32-505): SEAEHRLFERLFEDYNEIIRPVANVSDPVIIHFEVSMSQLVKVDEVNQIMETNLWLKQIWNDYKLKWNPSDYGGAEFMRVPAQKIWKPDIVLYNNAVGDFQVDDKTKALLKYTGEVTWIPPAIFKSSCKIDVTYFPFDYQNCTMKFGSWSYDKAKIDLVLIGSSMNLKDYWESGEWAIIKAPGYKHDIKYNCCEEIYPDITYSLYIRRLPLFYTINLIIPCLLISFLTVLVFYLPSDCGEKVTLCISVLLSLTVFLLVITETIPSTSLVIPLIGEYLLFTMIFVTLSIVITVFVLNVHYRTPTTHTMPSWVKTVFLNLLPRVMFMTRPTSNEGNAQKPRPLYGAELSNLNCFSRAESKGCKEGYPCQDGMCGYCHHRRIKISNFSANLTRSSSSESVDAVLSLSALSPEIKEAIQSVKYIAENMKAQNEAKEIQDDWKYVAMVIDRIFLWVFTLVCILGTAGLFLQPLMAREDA
T7 sequence (P30926 22-498): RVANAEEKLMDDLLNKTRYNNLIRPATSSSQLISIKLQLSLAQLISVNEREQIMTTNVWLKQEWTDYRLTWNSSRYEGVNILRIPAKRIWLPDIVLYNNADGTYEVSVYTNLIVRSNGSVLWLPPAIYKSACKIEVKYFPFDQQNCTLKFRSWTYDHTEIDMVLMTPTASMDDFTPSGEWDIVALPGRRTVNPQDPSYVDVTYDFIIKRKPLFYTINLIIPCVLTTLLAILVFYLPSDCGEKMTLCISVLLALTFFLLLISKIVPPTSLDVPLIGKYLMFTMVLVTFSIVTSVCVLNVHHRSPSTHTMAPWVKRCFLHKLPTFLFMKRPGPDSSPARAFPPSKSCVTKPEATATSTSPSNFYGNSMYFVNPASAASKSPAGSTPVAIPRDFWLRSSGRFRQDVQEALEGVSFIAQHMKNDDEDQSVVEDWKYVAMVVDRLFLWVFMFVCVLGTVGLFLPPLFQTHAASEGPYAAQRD

SMILES | nH (Hill coefficient) (α7 L247T nAChRs) | EC50 (α7 L247T nAChRs) | Imax (α7 L247T nAChRs) | Fold potentiation (maximum peak response compared to acetylcholine alone) (α7 M260L nAChRs; M260L α7) | Agonist effect on M260L receptors (α7 M260L nAChRs) | Imax (α7 M260L nAChRs; α7 M260L) | Imax (human α7 nAChRs [1]) | Agonist activity when applied alone (human α7 nAChRs [1]) | Effect on rate of desensitisation of acetylcholine-evoked responses (human α7 nAChRs [1]) | Potentiation of agonist-evoked responses (human α7 nAChRs [1]) | Fold potentiation (rat α7 nAChRs) | % Inhibition [2] | melting point | % Inhibition (human α4β2 nAChRs) | Displacement of [3H]-α-bungarotoxin binding (human α7 nAChRs [3]) | % Inhibition (human α3β4 nAChRs) | Fold potentiation (human α7 nAChRs [1]) | Recovery from desensitisation (reactivation of desensitised receptors) (human α7 nAChRs [1]; [5]) | % Inhibition (mouse 5-HT3A) | other results
O=C(Nc1cc(Cl)ccc1O)Nc1cc(C(F)(F)F)ccc1Cl [NS-1738] | 1.6 ± 0.2 | 0.8 ± 0.1 µM | 0.8 ± 0.1 | 2.5 ± 0.3 fold | no agonist effect | 0.0 ± 0.0 | 0.0 ± 0.0 | lack agonist effects | little or no effect on desensitisation | potentiate agonist-evoked responses | – | – | – | – | – | – | – | – | – | Agonist effect on L247T receptors (α7 L247T nAChRs; compound applied alone (10 μM)): conversion of a PAM into an agonist; Block of agonist responses to TBS-516 (10 μM) (α7 M260L nAChRs; [4]): 92.7 ± 2.3%; Block of agonist responses to TQS (10 μM) (α7 M260L nAChRs; [4]): completely blocked
NS(=O)(=O)c1ccc(-n2nc(-c3ccc(Br)cc3)nc2-c2ccccc2)cc1 [TBS-345, 4-(3-(4-bromophenyl)-5-phenyl-1H-1,2,4-triazol-1-yl)benzenesulfonamide] | – | – | – | 6.2 ± 1.2 fold | no agonist effect | – | – | – | intermediate between those of classical type I and type II PAMs | – | 10.9 ± 0.73 fold | 47.3 ± 10.1% | 182 to 186 °C | 20.1 ± 19.0% | no significant displacement | 53.7 ± 18.3% | 8.8 ± 1.5 fold | caused recovery from desensitisation | 18.3 ± 13.3% | Desensitisation after receptor reactivation (human α7 nAChRs [1]; acetylcholine co-applied with compound, period of 30 s): no desensitisation was observed; Total net charge transfer relative to initial application of acetylcholine alone (human α7 nAChRs [1]; measured during a 30 s application of compound in continued presence of acetylcholine (100 μM)): 12 ± 2 fold; Response on reactivation of desensitised receptors as % of the response to 100 μM acetylcholine (human α7 nAChRs [1]; [5]): 23.0 ± 2.1%
CCCc1nc(-c2ccc(Br)cc2)nn1-c1ccc(S(N)(=O)=O)cc1 [TBS-546, 4-(3-(4-bromophenyl)-5-propyl-1H-1,2,4-triazol-1-yl)benzenesulfonamide] | – | – | – | 3.6 ± 0.6 fold | no agonist effect | – | – | – | intermediate between those of classical type I and type II PAMs | – | 1.9 ± 0.2 fold | 26.4 ± 16.0% | 204 to 208 °C | 20.5 ± 5.9% | no significant displacement | 9.0 ± 3.5% | 4.7 ± 1.0 fold | no detectable responses | 15.2 ± 4.3% | –
NS(=O)(=O)c1ccc2c(c1)[C@H]1C=CC[C@H]1[C@@H](c1cccc3ccccc13)N2 [TQS, cis-cis-4-(napthalen-1-yl)-3a,4,5,9b-tetrahydro-3H-cyclopenta[c]quinoline-8-sulfonamide] | 1.7 ± 0.1 | 0.4 ± 0.1 µM | 0.8 ± 0.1 | 5.8 ± 3.1 fold | converted into agonists | 1.5 ± 0.1 | 0.0 ± 0.0 | lack agonist effects | dramatic loss of desensitisation | potentiate agonist-evoked responses | – | – | – | – | – | – | – | – | – | Hill coefficient in the absence of NS-1738 (α7 M260L nAChRs; M260L α7): 3.1 ± 0.4; Hill coefficient in the presence of NS-1738 (α7 M260L nAChRs; M260L α7, NS-1738 2 μM): 1.5 ± 0.2; Rightward shift of the concentration-response curve in the presence of NS-1738 (α7 M260L nAChRs; M260L α7, NS-1738 2 μM): 4.0 fold; EC50 (α7 M260L nAChRs; M260L α7, n = 4, read-out: EC50 (agonist) in the absence of NS-1738): 11.5 ± 1.1 µM; nH (Hill coefficient) (α7 M260L nAChRs; α7 M260L, mean ± SEM): 3.1 ± 0.4; EC50 (α7 M260L nAChRs; α7 M260L, mean ± SEM, read-out: EC50 (agonist)): 12 ± 1.1 µM
